Experimental data reported in ChEMBL document CHEMBL1130640, “Lactate cannot substitute for alanine in d4T-based anti-HIV nucleotide prodrugs--despite efficient esterase-mediated hydrolysis” (Bioorg Med Chem Lett, 1998).

tested on: CEM-TK(-); test: Compound was tested for anti-HIV-2 activity in CEM/TK- cell line; assay type: functional, cell-based; conditions: Homo sapiens

In the case of Cc1cn([C@H]2C=C[C@@H](CO)O2)c(=O)[nH]c1=O [STAVUDINE], the EC50 is reported as over 100 µM.

tested on: CEM-TK(-); test: Compound was tested for anti-HIV-2 activity in CEM/TK- cell line.; assay type: functional, cell-based; conditions: Homo sapiens

Compared with CCOC(=O)C(C)OP(=O)(OCC1C=CC(n2cc(C)c(=O)[nH]c2=O)O1)Oc1ccccc1 (centres undefined), COC(=O)C(C)OP(=O)(OCC1C=CC(n2cc(C)c(=O)[nH]c2=O)O1)Oc1ccccc1 (centres undefined) is higher in EC50: 160 µM for the first, over 250 µM for the second.

Compared with CCOC(=O)COP(=O)(OCC1C=CC(n2cc(C)c(=O)[nH]c2=O)O1)Oc1ccccc1 (centres undefined), COC(=O)COP(=O)(OCC1C=CC(n2cc(C)c(=O)[nH]c2=O)O1)Oc1ccccc1 (centres undefined) is higher in EC50: 150 µM for the first, over 250 µM for the second.

First: COC(=O)C(C)NP(=O)(OC[C@@H]1C=C[C@H](n2cc(C)c(=O)[nH]c2=O)O1)Oc1ccccc1 (some centres undefined)
Second: COC(=O)CNP(=O)(OCC1C=CC(n2cc(C)c(=O)[nH]c2=O)O1)Oc1ccccc1 (centres undefined)
The EC50 of the first is 93-fold lower: 0.075 µM for the first, 7 µM for the second.

tested on: CCRF-CEM; test: Compound was tested for anti-HIV-2 activity in CEM/0 cell line.; assay type: functional, cell-based; conditions: Homo sapiens

Compared with CCOC(=O)C(C)OP(=O)(OCC1C=CC(n2cc(C)c(=O)[nH]c2=O)O1)Oc1ccccc1 (centres undefined), COC(=O)C(C)OP(=O)(OCC1C=CC(n2cc(C)c(=O)[nH]c2=O)O1)Oc1ccccc1 (centres undefined) is 4.6-fold lower in EC50: 23 µM for the first, 5 µM for the second. The second is the more potent here.

First: CCOC(=O)COP(=O)(OCC1C=CC(n2cc(C)c(=O)[nH]c2=O)O1)Oc1ccccc1 (centres undefined)
Second: COC(=O)COP(=O)(OCC1C=CC(n2cc(C)c(=O)[nH]c2=O)O1)Oc1ccccc1 (centres undefined)
The EC50 of the first is 4-fold lower: 12.5 µM for the first, 50 µM for the second.

tested on: CCRF-CEM; test: Compound was tested for anti-HIV-1 activity in CEM/0 cell line; assay type: functional, cell-based; conditions: Homo sapiens

In the case of Cc1cn([C@H]2C=C[C@@H](CO)O2)c(=O)[nH]c1=O [STAVUDINE], the EC50 is reported as 0.25 µM.

tested on: CCRF-CEM; test: Compound was tested for anti-HIV-1 activity in CEM/0 cell line.; assay type: functional, cell-based; conditions: Homo sapiens

First: CCOC(=O)C(C)OP(=O)(OCC1C=CC(n2cc(C)c(=O)[nH]c2=O)O1)Oc1ccccc1 (centres undefined)
Second: COC(=O)C(C)OP(=O)(OCC1C=CC(n2cc(C)c(=O)[nH]c2=O)O1)Oc1ccccc1 (centres undefined)
The EC50 of the first is 7-fold higher: 28 µM for the first, 4 µM for the second. The second is the more potent here.

Compared with CCOC(=O)COP(=O)(OCC1C=CC(n2cc(C)c(=O)[nH]c2=O)O1)Oc1ccccc1 (centres undefined), COC(=O)COP(=O)(OCC1C=CC(n2cc(C)c(=O)[nH]c2=O)O1)Oc1ccccc1 (centres undefined) is 2.2-fold higher in EC50: 12.5 µM for the first, 27.5 µM for the second. The first is the more potent here.

tested on: CCRF-CEM; test: Compound was tested for cytostatic activity in CEM cell line; assay type: functional; conditions: Homo sapiens

Cc1cn([C@H]2C=C[C@@H](CO)O2)c(=O)[nH]c1=O [STAVUDINE] was tested, and the CC50 was over 100 µM.

tested on: CCRF-CEM; test: Compound was tested for cytostatic activity in CEM cell line.; assay type: functional; conditions: Homo sapiens

CCOC(=O)C(C)OP(=O)(OCC1C=CC(n2cc(C)c(=O)[nH]c2=O)O1)Oc1ccccc1 (centres undefined) and COC(=O)C(C)OP(=O)(OCC1C=CC(n2cc(C)c(=O)[nH]c2=O)O1)Oc1ccccc1 (centres undefined) cannot be ordered by CC50: over 250 µM for the first, at least 250 µM for the second.

CCOC(=O)COP(=O)(OCC1C=CC(n2cc(C)c(=O)[nH]c2=O)O1)Oc1ccccc1 (centres undefined) and COC(=O)COP(=O)(OCC1C=CC(n2cc(C)c(=O)[nH]c2=O)O1)Oc1ccccc1 (centres undefined) cannot be ordered by CC50: at least 250 µM for the first, over 250 µM for the second.

COC(=O)C(C)NP(=O)(OC[C@@H]1C=C[C@H](n2cc(C)c(=O)[nH]c2=O)O1)Oc1ccccc1 (some centres undefined) and COC(=O)CNP(=O)(OCC1C=CC(n2cc(C)c(=O)[nH]c2=O)O1)Oc1ccccc1 (centres undefined) cannot be ordered by CC50: over 100 µM for the first, at least 250 µM for the second.

tested on: CCRF-CEM; test: Compound was tested for anti-HIV-2 activity in CEM/0 cell line; assay type: functional, cell-based; conditions: Homo sapiens

Compound Cc1cn([C@H]2C=C[C@@H](CO)O2)c(=O)[nH]c1=O [STAVUDINE] has an EC50 of 1.2 µM.
